Measured values published in BindingDB's records for doi:10.1016/j.ejmech.2020.112337 (Paris-Saclay University, 2020).

Test: Inhibition of RIPK1 in human FADD-deficient Jurkat I 2.1 cells assessed as reduction in TNFalpha-induced necroptosis measured after 24 hrs by MTS assay

For `CCCCNc1nc2ccc([N+](=O)[O-])cc2[nH]1`, the EC50 was 1.7 µM.

Test: Inhibition of RIPK1 in human FADD-deficient Jurkat I 2.1 cells assessed as protection against TNFalpha-induced necroptosis measured after 24 hrs by MTS assay

Compared with `CCCCNc1nc2ccc([N+](=O)[O-])cc2[nH]1`, `CCCNc1nc2ccc([N+](=O)[O-])cc2[nH]1` is 8.5-fold higher in EC50: 1.7 µM for the first, 14.4 µM for the second. The first is the more potent here.

Going from `CC(C)Nc1nc2ccc([N+](=O)[O-])cc2[nH]1` to `O=[N+]([O-])c1ccc2nc(NC3CCCCC3)[nH]c2c1`, the EC50 falls from > 25 µM to 1.04 µM. The second is the more potent here.

Going from `O=[N+]([O-])c1ccc2nc(Nc3ccccc3)[nH]c2c1` to `CCCCNc1nc2ccc([N+](=O)[O-])cc2s1`, the EC50 rises from 2.5 µM to 6.9 µM (2.8-fold).

Going from `CCCCNc1nc2cccc(C(=O)OC)c2[nH]1` to `COC(=O)c1cccc2nc(NC3CCCCC3)[nH]c12`, the EC50 falls from 18.1 µM to 9 µM (2-fold). The second is the more potent here.

`Clc1ccc2nc(NC3CCCCC3)[nH]c2c1` and `CCCCNc1nc2cc([N+](=O)[O-])ccc2s1` are within 1.5-fold of each other in EC50: 4.4 µM for the first, 4.7 µM for the second.
